Measurements as given in patent publication US20010051602A1, “Methods for increasing ApoE levels for the treatment of neurodegenerative disease” (priority 1997, published 2001).

Columns and labels:
ApoE [1] = experiment: astrocyte screening assay: secreted ApoE in rat type 1 astrocyte cultures; assay type: cell-based; conditions: for levels of extracellular (secreted) ApoE: astrocyte screening assay
Source text: Other culture systems which may be used include human culture systems of primary cells derived from human tissue or immortalized cell lines of nerve tissue origin such as the human astrocyte cell line, AsCH-7 (Bobryshev et al., 1995). In addition, novel cell lines from patients with various apoE genotypes may be used, as well as cell lines from patients suffering or predisposed to suffer from any of the neurodegenerative diseases described herein. Adult spinal cord from post-mortem patients with any of the above diseases may be used as a source for deriving cell lines of nerve tissue origin. One method of immortalizing cells from these patients is to infect primary tissue with a replication-deficient retrovirus containing DNA sequences encoding the SV40 large T antigen (Whittemore et al., 1994). Another method is to derive immortal human-human hybrid cell lines that express phenotypic characteristics of primary oligodendrocytes or astrocytes by fuising a 6-thioguanine-resistant mutant of the human rhabdomyosarcoma RD cell line with adult human nerve tissue by a lectin-enhanced polyethylene glycol procedure (McLaurin et al., 1995). Other methods for immortalizing cells derived from primary human nerve tissue could include the use of chemical carcinogens or radiation. […] Antibodies to ApoE allow for the design of a high throughput assay using an immunoassay detection method.
(§1) To verify this working hypothesis, we have examined the effect of various concentration of tacrine on ApoE synthesis and secretion in brain cells in culture. FIG. 5 illustrates the effect of tacrine on ApoE secretion in rat type 1 astrocyte cultures exposed (for 8 hours) to physiological and pharmacological concentrations of the drug. […] Experimental methods used to monitor ApoE levels are described in Bertrand et al., Mol. Brain Res. 33:174-178 (1995).

Alzheimer's disease = conditions: Alzheimer's patients treated for very long periods; cited from earlier work
ApoE [2] = conditions: AD subjects treated with tacrine for several months, N = 4; untreated Alzheimer 0.36
Description: as §1

Compound | levels of extracellular (secreted) ApoE (ApoE [1]) | ApoE secretion in astrocytes (ApoE [1]; rat type 1 astrocyte cultures exposed for 8 hours, 2 uM, concentration typically found in CSF of treated AD patients) | delay of institutionalization (Alzheimer's disease) | ApoE Concentration In the Cerebrospinal Fluid (CSF), Mean (ApoE [2])
CCCCCCCNC(=O)Oc1ccc2c(c1)[C@]1(C)CCN(C)[C@@H]1N2C [heptylphysostigmine] | increase |  |  | 
Nc1c2c(nc3ccccc13)CCCC2 [tacrine] | increase | increases | more than 1.5 years | 0.41 mg/dL
COc1cc2c(cc1OC)C(=O)C(CC1CCN(Cc3ccccc3)CC1)C2 (stereo not drawn) [donepezil] | no effect |  |  | 
